Converted amounts (≈) assume the structure as drawn.
What was measured:
[1] = Cytotoxicity against human HepG2(2.2.15) cells; type: functional, cell-based
[2] = system: HepG2; experiment: Cytotoxicity against human HepG2 cells; type: functional, cell-based

SMILES	IC50 [1] [µg/mL]	IC50 [2] [µg/mL]
COc1cccc2c1C(=O)c1c(O)c3c(c(O)c1C2=O)C[C@@](O)(C(=O)CO)C[C@@H]3O[C@H]1C[C@H](N)[C@H](O)[C@H](C)O1 [DOXORUBICIN]	0.45 (≈ 0.828 µM)	
C[C@H]1C=C(C[C@H](O)CCCCCCCCCC[C@@H](O)[C@H]2CCC(=O)O2)C(=O)O1 [ROLLICOSIN]	0.021 (≈ 0.053 µM)	0.1 (≈ 0.252 µM)

Reference: ChEMBL document CHEMBL1159347, “A novel constituent from Rollinia mucosa, rollicosin, and a new approach to develop annonaceous acetogenins as potential antitumor agents” (J Nat Prod, 2003)
